This is an account of results in ChEMBL document CHEMBL2203167, “Structural modifications of 5,6-dihydroxypyrimidines with anti-HIV activity” (Bioorg Med Chem Lett, 2012).

Data set [1] in a line: Therapeutic index, ratio of CC50 for human C8166 cells to EC50 for HIV1 3B. The class given is cell-based. Conditions: read-out: Ratio CC50/EC50.
The subject of data set [2] is Human immunodeficiency virus 1. Nature of the data set: Antiviral activity against HIV1 3B infected in human C8166 cells assessed as inhibition of syncytia after 3 days. The class given is functional, organism-based. Conditions: Human immunodeficiency virus 1, 3B, C8166, 72 h.
The nature of data set [3]: Cytotoxicity against human C8166 cells after 3 days by MTT assay. It counts as cell-based.

In the case of `COc1cc(CNC(=O)c2nc(C(C)(C)NC(=O)OCc3ccccc3)nc(O)c2O)cc(OC)c1OC`, in data set [1], the selectivity ratio worked out at 8.89. Also, the EC50 in data set [2] is 12.3 µM. Moreover, in data set [3], the CC50 at 72 h was 110 µM.

Turning to `COCCNC(=O)c1nc(C(C)(C)NC(=O)OCc2ccccc2)nc(O)c1O`, the selectivity ratio in data set [1] came to 13.4. In addition, the EC50 in data set [2] amounted to 26 µM. The molecule further gave a CC50 at 72 h in data set [3] of 348 µM.

Regarding `CC(C)(NC(=O)OCc1ccccc1)c1nc(O)c(O)c(C(=O)NCCc2ccc(F)cc2)n1`, in data set [1], the selectivity ratio stood at 4.11. In data set [2], the EC50 was found to be 8.61 µM. This molecule also displayed a CC50 at 72 h in data set [3] of 35.4 µM.

Turning to `Cc1cn([C@H]2C[C@H](N=[N+]=[N-])[C@@H](CO)O2)c(=O)[nH]c1=O` [ZIDOVUDINE], the selectivity ratio in data set [1] is 274000. Also, the EC50 in data set [2] worked out at 0.019 µM.

Regarding `CC(C)(NC(=O)OCc1ccccc1)c1nc(O)c(O)c(C(=O)NN)n1`, the selectivity ratio in data set [1] is > 3.37. Besides, the EC50 in data set [2] was found to be 164 µM. Further, the CC50 at 72 h in data set [3] is > 500 µM.

Turning to `CC(C)(NC(=O)OCc1ccccc1)c1nc(O)c(O)c(C(=O)NCc2ccccc2)n1`, in data set [1], the selectivity ratio was determined as 128. The EC50 in data set [2] came out at 0.32 µM. In data set [3], this molecule gave a CC50 at 72 h of 41.4 µM.

Consider `COc1ccc(CNC(=O)Nc2nc(C(C)(C)NC(=O)OCc3ccccc3)nc(O)c2O)cc1`, for which, in data set [1], the selectivity ratio is 4.46. Further, in data set [2], the EC50 came out at 93.2 µM. Also, in data set [3], the CC50 at 72 h was > 500 µM.

Consider `CC(C)(NC(=O)OCc1ccccc1)c1nc(O)c(O)c(C(=O)NCCc2ccccc2)n1`, for which, in data set [1], the selectivity ratio was 3.32. For the same molecule, in data set [2], the EC50 was determined as 11.6 µM. In data set [3], this molecule came in with a CC50 at 72 h of 38.5 µM.

On to `CC(C)(NC(=O)OCc1ccccc1)c1nc(O)c(O)c(C(=O)NCc2ccc(C(F)(F)F)cc2)n1`, for which the selectivity ratio in data set [1] was found to be 244. Moreover, the EC50 in data set [2] was determined as 0.24 µM. Moreover, the cytotoxic concentration (CC50) at 72 h in data set [3] was 58.1 µM.

Take `CC(C)(NC(=O)OCc1ccccc1)c1nc(O)c(O)c(C(=O)NCc2ccccc2Cl)n1`: the selectivity ratio in data set [1] was 396. Further, the EC50 in data set [2] was determined as 0.14 µM. Besides, the midpoint of cytotoxicity in data set [3], the CC50 at 72 h, lay at 53.9 µM.

For `CC(C)(NC(=O)OCc1ccccc1)c1nc(O)c(O)c(NC(=O)NCc2ccc(F)cc2)n1`, the selectivity ratio in data set [1] turned out to be 8.21. Besides, in data set [2], the EC50 came to 9.87 µM. The CC50 at 72 h in data set [3] is 81.1 µM.

For `CC(C)(NC(=O)OCc1ccccc1)c1nc(O)c(O)c(C(=O)NCCc2cc3ccccc3[nH]2)n1`, in data set [1], the selectivity ratio was 4.76. Moreover, the EC50 in data set [2] amounted to 7.12 µM. Further, the CC50 at 72 h in data set [3] was 34.1 µM.

For the molecule `COCCCNC(=O)c1nc(C(C)(C)NC(=O)OCc2ccccc2)nc(O)c1O`, the selectivity ratio in data set [1] was determined as 31.2. The EC50 in data set [2] was 8.3 µM. Further, in data set [3], half-maximal cytotoxicity (CC50 at 72 h) was put at 259 µM.

As for `CC(C)(NC(=O)OCc1ccccc1)c1nc(O)c2oc(=O)[nH]c2n1`, in data set [1], the selectivity ratio was > 7.83. Besides, the EC50 in data set [2] was 74.2 µM. The CC50 at 72 h in data set [3] was > 500 µM.

With `COCCNC(=O)Nc1nc(C(C)(C)NC(=O)OCc2ccccc2)nc(O)c1O`, the selectivity ratio in data set [1] was > 9.13. In addition, in data set [2], the EC50 worked out at 52.3 µM. The cytotoxic concentration (CC50) at 72 h in data set [3] was > 500 µM.

`Cc1ccc(CNC(=O)c2nc(C(C)(C)NC(=O)OCc3ccccc3)nc(O)c2O)cc1`: the selectivity ratio in data set [1] came out at 383. Besides, the EC50 in data set [2] was found to be 0.55 µM. The CC50 at 72 h in data set [3] was 234 µM.

Regarding `COc1ccc(CNC(=O)c2nc(C(C)(C)NC(=O)OCc3ccccc3)nc(O)c2O)cc1`, in data set [1], the selectivity ratio is 1090. Also, in data set [2], the EC50 turned out to be 0.15 µM. For the same molecule, in data set [3], the CC50 at 72 h amounted to 164 µM.

Take `CC(C)(NC(=O)OCc1ccccc1)c1nc(O)c(O)c(C(=O)N/N=C/c2ccc(F)cc2)n1`: in data set [1], the selectivity ratio turned out to be 13.7. In data set [2], the EC50 was determined as 27.7 µM. Further, it took 378 µM to reach half-maximal cytotoxicity in data set [3] (CC50 at 72 h).

For `CC(C)(NC(=O)OCc1ccccc1)c1nc(O)c(O)c(C(=O)NCC2CC2)n1`, in data set [1], the selectivity ratio came out at 8.33. For the same molecule, the EC50 in data set [2] was 24.4 µM. In addition, the CC50 at 72 h in data set [3] turned out to be 204 µM.
